For one test, the system named is EKVX. Description: Cytotoxicity against human EKVX cells assessed as cell growth at 10 uM after 48 hrs by SRB assay relative to control. In kind it is functional. The note with it: read-out: Activity.
For another test, the system named is Malme-3M. Description: Cytotoxicity against human MALME-3M cells assessed as cell growth at 10 uM after 48 hrs by SRB assay relative to control. Format: functional. The note with it: read-out: Activity. In general terms: The SRB assay estimates cell density from bound dye.
The next test relates to SR. Description: Cytotoxicity against human SR cells assessed as cell growth at 10 uM after 48 hrs by SRB assay relative to control. In kind it is functional. The note with it: read-out: Activity.
Another test relates to OVCAR-4. The experiment in a line: Cytotoxicity against human OVCAR4 cells assessed as cell growth at 10 uM after 48 hrs by SRB assay relative to control. Format: functional. The note with it: OVCAR-4, 48 h, read-out: Activity.
The next test has as its system PC-3. Description: Cytotoxicity against human PC3 cells assessed as cell growth at 10 uM after 48 hrs by SRB assay relative to control. The note with it: PC-3, 48 h, read-out: Activity. Format: functional.
The next test relates to HT-29. Description: Cytotoxicity against human HT-29 cells assessed as cell growth at 10 uM after 48 hrs by SRB assay relative to control. Format: functional. The note with it: HT-29, 48 h, read-out: Activity.
Another test deals with NCI-H522. The experiment in a line: Cytotoxicity against human NCI-H522 cells assessed as cell growth at 10 uM after 48 hrs by SRB assay relative to control. In kind it is functional. The note with it: NCI-H522, 48 h, read-out: Activity.
A further test concerns SF-268. Description: Cytotoxicity against human SF268 cells assessed as cell growth at 10 uM after 48 hrs by SRB assay relative to control. In kind it is functional. The note with it: SF-268, 48 h, read-out: Activity.
The test system of the next test is SNB-19. Description: Cytotoxicity against human SNB19 cells assessed as cell growth at 10 uM after 48 hrs by SRB assay relative to control. Format: functional. The note with it: SNB-19, 48 h, read-out: Activity.
Another test has as its system DU-145. The experiment in a line: Cytotoxicity against human DU145 cells assessed as cell growth at 10 uM after 48 hrs by SRB assay relative to control. Format: functional. The note with it: DU-145, 48 h, read-out: Activity.
In another test the test system is MOLT-4. The experiment in a line: Cytotoxicity against human MOLT4 cells assessed as cell growth at 10 uM after 48 hrs by SRB assay relative to control. In kind it is functional. The note with it: MOLT-4, 48 h, read-out: Activity.
For the next test, the system named is KM12. Description: Cytotoxicity against human KM12 cells assessed as cell growth at 10 uM after 48 hrs by SRB assay relative to control. In kind it is functional. The note with it: KM12, 48 h, read-out: Activity.
The subject of another test is BT-549. The experiment in a line: Cytotoxicity against human BT549 cells assessed as cell growth at 10 uM after 48 hrs by SRB assay relative to control. Format: functional. The note with it: BT-549, 48 h, read-out: Activity.
Test [1] concerns the target DNA topoisomerase 2-alpha (Homo sapiens) (UniProt P11388). Description: Inhibition of human DNA topoisomerase 2 at 100 uM after 1 hr by agarose gel circular DNA decatenation assay.
For the next test, the system named is CCRF-CEM. The experiment in a line: Cytotoxicity against human CCRF-CEM cells assessed as cell growth at 10 uM after 48 hrs by SRB assay relative to control. In kind it is functional. The note with it: read-out: Activity.
The test system of the next test is NCI-H460. The experiment in a line: Cytotoxicity against human NCI-H460 cells assessed as cell growth at 10 uM after 48 hrs by SRB assay relative to control. The note with it: NCI-H460, 48 h, read-out: Activity. Format: functional.
The next test concerns SN12C. Description: Cytotoxicity against human SN12C cells assessed as cell growth at 10 uM after 48 hrs by SRB assay relative to control. In kind it is functional. The note with it: read-out: Activity.
Another test deals with T47D. Description: Cytotoxicity against human T47D cells assessed as cell growth at 10 uM after 48 hrs by SRB assay relative to control. In kind it is functional. The note with it: read-out: Activity.
The next test has as its system OVCAR-5. Description: Cytotoxicity against human OVCAR5 cells assessed as cell growth at 10 uM after 48 hrs by SRB assay relative to control. In kind it is functional. The note with it: OVCAR-5, 48 h, read-out: Activity.
The next test relates to HL-60. The experiment in a line: Cytotoxicity against human HL60 cells assessed as cell growth at 10 uM after 48 hrs by SRB assay relative to control. In kind it is functional. The note with it: HL-60, 48 h, read-out: Activity.
Another test concerns UACC-257. The experiment in a line: Cytotoxicity against human UACC257 cells assessed as cell growth at 10 uM after 48 hrs by SRB assay relative to control. The note with it: UACC-257, 48 h, read-out: Activity. Format: functional.
Another test relates to MDA-MB-231. The experiment in a line: Cytotoxicity against human MDA-MB-231 cells assessed as cell growth at 10 uM after 48 hrs by SRB assay relative to control. In kind it is functional. The note with it: MDA-MB-231, 48 h, read-out: Activity.
For a further test, the system named is 786-0. Description: Cytotoxicity against human 786-0 cells assessed as cell growth at 10 uM after 48 hrs by SRB assay relative to control. Format: functional. The note with it: 786-0, 48 h, read-out: Activity.
Another test deals with COLO 205. Description: Cytotoxicity against human COLO205 cells assessed as cell growth at 10 uM after 48 hrs by SRB assay relative to control. In kind it is functional. The note with it: COLO 205, 48 h, read-out: Activity.
In a further test the test system is NCI-H322M. Description: Cytotoxicity against human NCI-H322M cells assessed as cell growth at 10 uM after 48 hrs by SRB assay relative to control. In kind it is functional. The note with it: read-out: Activity.

Structures are written as SMILES. Calls of active or inactive are those of the source. The rule behind the calls is not given here.

Sequence of DNA topoisomerase 2-alpha (Homo sapiens) (P11388 whole entry): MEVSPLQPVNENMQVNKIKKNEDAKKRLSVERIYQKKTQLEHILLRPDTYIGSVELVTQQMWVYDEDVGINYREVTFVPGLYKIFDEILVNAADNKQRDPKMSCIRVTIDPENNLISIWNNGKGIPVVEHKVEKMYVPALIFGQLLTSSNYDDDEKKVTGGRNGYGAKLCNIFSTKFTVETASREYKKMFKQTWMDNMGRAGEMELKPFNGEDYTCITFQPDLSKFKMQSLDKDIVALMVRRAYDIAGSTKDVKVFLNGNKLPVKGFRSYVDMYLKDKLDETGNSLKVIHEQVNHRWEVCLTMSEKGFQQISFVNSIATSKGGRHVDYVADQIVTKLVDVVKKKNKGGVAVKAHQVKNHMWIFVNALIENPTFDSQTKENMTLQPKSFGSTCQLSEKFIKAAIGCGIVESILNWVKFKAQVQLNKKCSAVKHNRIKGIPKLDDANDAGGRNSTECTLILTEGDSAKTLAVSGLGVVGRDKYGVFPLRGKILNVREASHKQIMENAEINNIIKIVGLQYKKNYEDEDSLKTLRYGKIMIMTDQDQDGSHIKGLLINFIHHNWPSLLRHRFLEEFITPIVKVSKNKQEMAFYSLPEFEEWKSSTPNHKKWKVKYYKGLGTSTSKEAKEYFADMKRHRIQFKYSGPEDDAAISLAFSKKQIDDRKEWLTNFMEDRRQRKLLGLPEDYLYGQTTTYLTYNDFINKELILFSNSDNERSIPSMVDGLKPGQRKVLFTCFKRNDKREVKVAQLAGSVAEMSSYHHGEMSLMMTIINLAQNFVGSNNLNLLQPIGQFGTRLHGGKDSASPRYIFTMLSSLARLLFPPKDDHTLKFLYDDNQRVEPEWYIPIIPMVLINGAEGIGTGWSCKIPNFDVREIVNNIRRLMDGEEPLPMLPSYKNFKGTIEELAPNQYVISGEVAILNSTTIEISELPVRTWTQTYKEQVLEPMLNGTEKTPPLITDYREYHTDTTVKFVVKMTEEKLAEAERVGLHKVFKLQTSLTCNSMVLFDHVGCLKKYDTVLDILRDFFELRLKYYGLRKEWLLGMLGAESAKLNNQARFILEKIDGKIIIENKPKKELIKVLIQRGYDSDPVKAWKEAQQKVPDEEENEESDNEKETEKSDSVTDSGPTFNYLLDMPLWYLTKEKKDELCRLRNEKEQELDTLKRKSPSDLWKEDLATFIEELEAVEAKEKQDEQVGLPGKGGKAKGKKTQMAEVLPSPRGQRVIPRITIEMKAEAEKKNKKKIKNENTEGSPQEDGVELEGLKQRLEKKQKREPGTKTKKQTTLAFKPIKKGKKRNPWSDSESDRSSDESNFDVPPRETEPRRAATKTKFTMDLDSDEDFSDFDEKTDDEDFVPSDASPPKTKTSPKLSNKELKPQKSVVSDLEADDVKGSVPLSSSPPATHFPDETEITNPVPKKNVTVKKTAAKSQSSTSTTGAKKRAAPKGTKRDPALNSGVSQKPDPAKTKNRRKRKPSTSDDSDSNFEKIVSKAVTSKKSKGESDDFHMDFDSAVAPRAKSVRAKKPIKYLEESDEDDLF

With `Cn1c2ccccc2c2c3c(=O)[nH]c(N)nc3c3c4cccnc4n(C)c3c21`, the growth at 10 µM in the test on EKVX amounted to 82.2%; with Malme-3M, 119%; in the test with SR, 63.3%; in the test with OVCAR-4 it was 80.1%; in the test with PC-3, 71%; with HT-29 it was 78%. Further, the growth at 10 µM in the test with NCI-H522 is 35%; in the test with SF-268, 95.6%; in the test on SNB-19, 103%; in the test on DU-145, 83.2%; with MOLT-4, 74.4%; in the test with KM12 it was 59%. Moreover, the growth at 10 µM in the test with BT-549 came to 66%; in the test on CCRF-CEM, 65.3%; in the test with NCI-H460, 65.5%; with SN12C it was 91%; in the test with T47D, 48.7%; in the test on OVCAR-5, 98.8%. Besides, the growth at 10 µM in the test on HL-60 worked out at 72.8%; with UACC-257 it was 129%; with MDA-MB-231, 79.4%. Further, the inhibition result in [1] was “inactive”.

As to `Cn1cc(-c2[nH]c(=O)[nH]c(=O)c2-c2cn(C)c3ccccc23)c2ccccc21`, the growth at 10 µM with EKVX amounted to 68.7%; with Malme-3M it was 98.6%; in the test with PC-3, 86.1%; in the test with 786-0, 111%; in the test with NCI-H522 it was 93.1%; in the test with COLO 205, 96.3%. Further, the growth at 10 µM is 106% in the test on SF-268; 109% in the test with SNB-19; 115% with DU-145; 93.3% in the test on KM12; 95.8% in the test on BT-549; 87.6% in the test with CCRF-CEM. In addition, the growth at 10 µM in the test with NCI-H460 turned out to be 88.2%; in the test with SN12C, 110%; in the test on T47D it was 82.4%; in the test on UACC-257, 82.1%; with NCI-H322M, 105%. Also, in test [1], the inhibition entry was “inactive”.

For `Cn1cc(-c2nc(N)[nH]c(=O)c2-c2cn(C)c3ccccc23)c2ccccc21`, the growth at 10 µM was determined as 105% in the test on EKVX; 112% in the test on Malme-3M; 110% in the test with SR; 89.7% in the test with PC-3; 122% with 786-0; 94.3% in the test with HT-29. Further, the growth at 10 µM with NCI-H522 was 86.7%; with COLO 205 it was 104%; with SF-268 it was 109%; with SNB-19 it was 111%; in the test on DU-145 it was 122%; in the test with MOLT-4 it was 105%. Besides, the growth at 10 µM was 103% with KM12; 102% in the test with BT-549; 90.7% in the test on NCI-H460; 93.8% with T47D; 103% with HL-60; 95.6% with UACC-257. Besides, the growth at 10 µM with MDA-MB-231 was 105%; in the test with NCI-H322M, 88.6%. Also, in test [1], the inhibition result is “inactive”.

Turning to `Cn1cc(-c2c(-c3cn(C)c4ncccc34)nc(N)[nH]c2=O)c2ccccc21`, the growth at 10 µM with EKVX came out at 96.3%; in the test with Malme-3M, 107%; in the test on SR it was 90.4%; in the test with OVCAR-4 it was 88%; in the test on PC-3, 84.2%; with 786-0, 106%. In addition, the growth at 10 µM with HT-29 stood at 98.5%; with NCI-H522, 88%; in the test on COLO 205 it was 106%; in the test on SF-268 it was 101%; with SNB-19, 111%; in the test on DU-145 it was 107%. For the same compound, the growth at 10 µM worked out at 97.1% in the test on MOLT-4; 102% with KM12; 95.8% with BT-549; 92.5% in the test with CCRF-CEM; 98.4% with NCI-H460; 104% with SN12C. Moreover, the growth at 10 µM with T47D was 83%; in the test with OVCAR-5 it was 106%; in the test on HL-60, 105%; in the test on UACC-257, 103%; in the test with MDA-MB-231, 96.4%; in the test on NCI-H322M, 95.3%.

As to `Cn1cc(-c2[nH]c(=S)[nH]c(=O)c2-c2cn(C)c3ccccc23)c2ccccc21`, the growth at 10 µM with EKVX amounted to 75%; in the test with Malme-3M, 99.5%; in the test on SR, 93.9%; in the test with OVCAR-4, 103%; in the test with PC-3, 92.1%; in the test with 786-0 it was 107%. The growth at 10 µM worked out at 112% with HT-29; 96.7% with NCI-H522; 100% in the test on COLO 205; 106% with SF-268; 105% with SNB-19; 110% in the test with DU-145. Besides, the growth at 10 µM in the test with MOLT-4 was 103%; in the test on KM12 it was 97.9%; in the test with BT-549, 102%; in the test with CCRF-CEM, 99%; in the test with NCI-H460, 93%; with SN12C it was 103%. Besides, the growth at 10 µM with T47D came to 98.3%; in the test with OVCAR-5, 107%; in the test with HL-60 it was 104%; in the test with UACC-257, 94.2%; with MDA-MB-231 it was 91.7%; with NCI-H322M it was 96.5%. Further, the inhibition result in test [1] was “inactive”.
